The text below walks through data of PMC10667104, “Biosynthesis of natural and halogenated plant monoterpene indole alkaloids in yeast” (Nature Chemical Biology, 2023).

The assay has as its target T1, ADRA2A (Homo sapiens, UniProt P08913).
T1 sequence (P08913 1-465): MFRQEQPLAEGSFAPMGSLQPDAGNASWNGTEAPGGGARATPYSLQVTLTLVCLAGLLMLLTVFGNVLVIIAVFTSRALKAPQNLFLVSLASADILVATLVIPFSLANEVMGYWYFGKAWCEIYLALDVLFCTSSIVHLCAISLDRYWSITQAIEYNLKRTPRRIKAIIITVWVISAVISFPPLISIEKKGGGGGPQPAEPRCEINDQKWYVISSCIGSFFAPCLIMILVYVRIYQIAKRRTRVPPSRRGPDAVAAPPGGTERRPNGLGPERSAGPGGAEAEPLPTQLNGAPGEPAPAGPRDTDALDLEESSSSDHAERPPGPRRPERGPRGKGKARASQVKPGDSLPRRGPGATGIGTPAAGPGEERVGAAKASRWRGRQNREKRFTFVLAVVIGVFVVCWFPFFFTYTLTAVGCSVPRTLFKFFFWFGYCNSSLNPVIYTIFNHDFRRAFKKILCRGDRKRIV
Briefly: cell-based.

By IC50 is commonly meant the midpoint of a concentration-inhibition curve. A low value points to greater potency. Take `COC(=O)C1=CO[C@@H](C)[C@@H]2Cn3ccc4c5ccccc5nc-4c3C[C@H]12` [1a, alstonine]: the IC50 turned out to be 59 µM.
